In patent US10414759B2, “Phenylthiazoles and uses thereof” (Purdue Research Foundation, priority 2017, dated 2019):
Converted amounts (≈) assume the structure as drawn. “Also recorded” adds a separate entry of the source. Like-named read-outs stand apart in the source and are kept apart here.

Key:
MRSA (2658 RCMB) = test: MIC against MRSA (2658 RCMB), broth dilution; type: cell-based, Staphylococcus aureus; conditions: for MIC: Staphylococcus aureus, read-out: MIC ± SD
Protocol: Bacteria were cultured in cation-adjusted Mueller Hinton broth in a 96-well plate. Compounds, using triplicate samples, were added to the plate and serially diluted. […] Plates were visually inspected and the MIC was categorized as the concentration at which no visible growth of bacteria was observed. The average of triplicate MIC determinations is reported.
A bacterial solution equivalent to 0.5 McFarland standard was prepared and diluted in cation-adjusted Mueller-Hinton broth (CAMHB) to achieve a bacterial concentration of about 5×10^5 CFU/mL and seeded in 96-well plates. Enterococcus faecium was diluted in brain heart infusion broth. Enterococcus faecalis, Streptococcus pneumonia and Listeria monocytogenes were diluted in tryptone soya broth (TSB).

[1] = Metabolic stability in human liver microsomes; type: in vitro ADME; conditions: pH 7.4, human liver microsomes
Protocol: The tested compounds were incubated in duplicate with human liver microsomes at 37° C. The reaction contained microsomal protein in 100 mM potassium phosphate, 2 mM NADPH, 3 mM MgCl2, pH 7.4. A control was run for each test agent omitting NADPH to detect NADPH-free degradation. At 0, 10, 20, 40, and 60 minutes, an aliquot was removed from each experimental and control reaction and mixed with an equal volume of ice-cold Stop Solution (methanol containing haloperidol, diclofenac, or other internal standard). Stopped reactions are incubated at least ten minutes at −20° C., and an additional volume of water was added. The samples were centrifuged to remove precipitated protein, and the supernatants were analyzed by LC/MS/MS to quantitate the remaining parent. Data are converted to % remaining by dividing by the time zero concentration value. Data are fit to a first-order decay model to determine half-life. Intrinsic clearance is calculated from the half-life and the protein concentrations: CLint=ln(2)/(T1/2 [microsomal protein]).

[2] = PBS solubility screen (turbidometric); type: physicochemical; conditions: for solubility at 2 h: aqueous buffer, kinetic from dmso stock
Protocol: The solutions were diluted 100-fold into PBS in a 96-well plate and mixed. The absorbance of the PBS-containing plate was measured prior to addition of the test agents to determine the background absorbance. After 2 h, the presence of precipitate was detected by turbidity (absorbance at 540 nm). […] The solubility limit is reported as the highest experimental concentration with no evidence of turbidity.

Caco-2 cells = test: Caco-2 bidirectional permeability assay
[3] = NADPH omitted, read-out: NADPH-free Clint
[4] = NADPH omitted, read-out: NADPH-free t1/2
[5] = with NADPH, read-out: NADPH-dependent t1/2
[6] = phosphate buffered saline (PBS), highest concentration with no precipitate (OD540), read-out: Solubility limit

Compound	MIC (MRSA (2658 RCMB); Table 1, MRSA (2658 RCMB))	MIC ± SD (MRSA (2658 RCMB); Table 1, MRSA (2658 RCMB))	microsomal CLint [1, 3]	half-life [1, 4]	microsomal CLint ([1]; with NADPH, read-out: NADPH-dependent CLint)	half-life [1, 5]	less soluble than the lead compound 1 ([2]; 2 h)	solubility at 2 h [2]	melting point	Mean A→B Papp (Caco-2 cells; Caco-2, apical to basolateral)	Mean B→A Papp (Caco-2 cells; Caco-2, basolateral to apical)	Efflux ratio (Caco-2 cells; Papp (B→A)/Papp (A→B))	antibacterial (anti-MRSA) activity, in words (MRSA (2658 RCMB); Table 1)	MIC (MRSA (2658 RCMB); MRSA)	solubility at 2 h [2, 6]
CCCCc1ccc(-c2nc(C)c(-c3ccnc(N)n3)s2)cc1 [Compound 8, 4-[2-(4-Butylphenyl)-4-methylthiazol-5-yl]pyrimidin-2-amine]	3.12 ± 0.1 µg/mL (≈ 9.62 µM)	3.12 ± 0.10 µg/mL (≈ 9.62 µM)	0.5 µL/min/mg	> 60 min	3 to 7.5 µL/min/mg	195 min	32%	42 µM (≈ 13.6 µg/mL)	159 °C	1.49e-05 cm/s	1.7e-05 cm/s	1.1			
CCCCc1ccc(-c2nc(C)c(-c3ccnc(NC(=N)N(C)C)n3)s2)cc1 [Compound 11, 3-{4-[2-(4-Butylphenyl)-4-methylthiazol-5-yl]pyrimidin-2-yl}-1,1-dimethylguanidine]	0.78 µg/mL (≈ 1.98 µM)		0.5 µL/min/mg	> 60 min		243 min		53 µM (≈ 20.9 µg/mL)	153.7 °C				more potent than vancomycin; also recorded: MIC value below one microgram/mL		
Cc1nc(-c2ccc(-c3ccoc3)cc2)sc1-c1ccnc(N)n1 [Compound 24, 4-{2-[4-(Furan-3-yl)phenyl]-4-methylthiazol-5-yl}pyrimidin-2-amine]									161.2 °C					7.8 ± 0.5 µg/mL (≈ 23.3 µM)	13 µM (≈ 4.35 µg/mL)
Cc1nc(-c2ccc(-c3ccco3)cc2)sc1-c1ccnc(N)n1 [Compound 25, 4-{2-[4-(Furan-2-yl)phenyl]-4-methylthiazol-5-yl}pyrimidin-2-amine]									209.3 °C					8.7 ± 0.3 µg/mL (≈ 26 µM)	14 µM (≈ 4.68 µg/mL)
Cc1nc(-c2ccc(-c3ccsc3)cc2)sc1-c1ccnc(N)n1 [Compound 26, 4-{4-Methyl-2-[4-(thiophen-3-yl)phenyl]thiazol-5-yl}pyrimidin-2-amine]	6.25 µg/mL (≈ 17.8 µM)							8.5 µM (≈ 2.98 µg/mL)	225 °C (dec.)						
